From paper PMC8165744, “Identification of an Alternative Glycyrrhizin Metabolite Causing Liquorice-Induced Pseudohyperaldosteronism and the Development of ELISA System to Detect the Predictive Biomarker” (Frontiers in Pharmacology, 2021)
Like-named read-outs stand apart in the source and are kept apart here.

Experiments:
[1] = elimination of GA metabolites in SD rats intravenously injected with GA; assay type: in vivo, Sprague-Dawley (SD) rats; details: female SD rats, GA iv, faeces collected 24 h after injection
From the text: (§1) Briefly, after diluting serum and urine samples with water to obtain suitable concentrations, they were digested with subtilisin (0.91 U/ml), followed by the addition of astragaloside IV (used as an internal standard; Fujifilm Wako Pure Chemicals, Osaka, Japan), and deproteinized using 80% ethanol. […] The transitions (precursor to daughter) monitored and retention times were as follows: ESI(+), 743.4 to 567.5 m/z (35 and 25 V for cone voltage and collision energy, respectively) for compound 1 (8.1 min); ESI(–), 565.5 to 96.5 m/z (80 and 60 V) for 2 (9.6 min); ESI(–), 549.5 to 96.5 m/z (80 and 60 V) for 3 (15.4 min); ESI(+), 727.3 to 551.2 m/z (30 and 25 V) for 4 (11.3 min); ESI(+), 647.6 to 453.6 m/z (40 and 20 V) for 3MGA (15.0 min); ESI(+), 471.3 to 91.0 m/z (40 and 20 V) for GA (13.4 min); ESI(+), 823.5 to 453.6 m/z (30 and 20 V) for GL (18.4 min); and ESI(+), 785.4 to 143.0 m/z (30 and 20 V) for astragaloside IV (3.0 min). Linear regressions over the concentration range of 2 nM to 2 µM for each compound were examined using the peak-area ratio of the compounds to their internal standards and the least-squares method (r ^ 2 > 0.98). The detection limits for 1, GL, and GA were 6.4 nM, and those for 2, 3, and 4, and 3MGA were 3.2 nM.
FIGURE 6 Elimination of glycyrrhizin (GL) metabolites into bile in Sprague-Dawley (SD) rats. Female SD rats (10 week-old) were anesthetized using intraperitoneal injection of urethane (1 g/kg), and biliary tracts were cannulated. […] Concentrations of GA metabolites were measured using liquid chromatography-tandem mass spectrometry (LC-MS/MS) and accumulated elimination of GA-metabolites are means ± standard error (S.E: n = 3).

[2] = pharmacokinetics of GA metabolites in EHBRs orally treated with GA; assay type: in vivo, Eisai hyperbilirubinuria rats (EHBRs); details: for concentration at 12 h: Eisai hyperbilirubinuria rat (EHBR), rat, plasma, 200 mg/kg, GA 0.20 g/kg oral, read-out: plasma concentration 12 h after oral administration of GA
Method: Pharmacokinetic Experiments of GA Metabolites in EHBRs Orally Treated With GA
Male and female EHBRs (9 week-old) were anaesthetized by an intraperitoneal injection of urethane (1 g/kg) and their jugular veins were exposed. GA suspended in 0.5% carboxymethylcellulose was then administered orally (200 mg/kg) to the unconscious rats, and blood samples were collected from the jugular vein while urine samples were collected using a metabolic cage at appropriate times over a 12 h period.
LC-MS/MS Analysis for GA Metabolites
as §1
FIGURE 5 Pharmacokinetic profiles of glycyrrhizin (GL) metabolites in female (A–C) and male (D–F) Eisai hyperbilirubinuria rats (EHBRs). […] Data of GA, 3MGA, 1, 2, and 3 in (A) and GA, 3MGA, 2, and 3 for (D) are relatively small; their magnified graphs are shown in (B,E), respectively. Concentrations of GA metabolites were measured using liquid chromatography-tandem mass spectrometry (LC-MS/MS), and data are means ± standard error (S.E: n = 4).

[3] = system: mineralocorticoid receptor (MR); parameters: method as in earlier work; details: ref Ulmann et al., 1975; Armanini et al., 1983; Monder et al., 1989; cited from earlier work
[4] = parameters: method as in Takahashi et al., 2019; details: ref Takahashi et al., 2019, cited from earlier work
anti-3MGA-mAb = assay: competitive ELISA using anti-3MGA-mAb; assay type: binding; details: competitive ELISA in aqueous solution, 3MGA calibrated to 100%
Method: ELISA System Using anti-3MGA-mAb
An ELISA system to measure the cross-reactivity of compounds 3 and 4 by using 3MGA-HSA-conjugate and anti-3MGA-mAb was used according to the protocol in our previous study ([Ishiuchi et al., 2019]). To measure the concentration of 3 in human serum samples using the system ELISA, 3 was dissolved in normal human serum (Sigma) to prepare standard solutions (16 nM–2.0 µM) and the samples or standard solutions (each 10 µl) and ethanol (40 µl) were well mixed and centrifuged (1.2 × 10^4 × g for 7 min). The supernatant was dried up under nitrogen flow at 40°C overnight, and the residue was dissolved in Can Get Signal® Solution 1 (Toyobo Co., Ltd: Osaka, Japan) (50 µl). […] When the observed values were more than 400 nM, the deproteinized serum samples were further diluted with Can Get Signal® Solution 1 for two or four times and analyzed again to observe values from 15.6 to 400 nM.
FIGURE 4 Development of enzyme-linked immunosorbent assay (ELISA) system to measure concentrations of 3 in human serum samples using anti-18β-glycyrrhetyl-3-O-glucuronide (3MGA)-monoclonal antibody (mAb). […] Standard lines between absorbance and concentrations of compound 3 are shown (D) Accuracy of ELISA system in measuring concentrations of 3 in human serum samples using anti-3MGA-mAb. Human serum samples were deproteinized, and concentration of 3 was measured using ELISA system. […]

Row | SMILES | accumulative elimination in faeces [1] | blood concentration in male rats relative to female rats ([2]; EHBRs, 12 h after oral GA) | concentration at 12 h ([2]; female EHBRs) [nM] | concentration at 12 h ([2]; male EHBRs) [nM] | binding activity (ED50) on mineralocorticoid receptor [3] | serum concentration of 3 relative to that of GA (fold higher) ([4]; human serum) | maximum serum concentration ([4]; previous clinical study) [µM] | cross-reactivity to anti-3MGA-mAb (anti-3MGA-mAb) [%]
1 | CC1(C)[C@@H](OS(=O)(=O)O)CC[C@]2(C)[C@H]3C(=O)C=C4[C@@H]5C[C@@](C)(C(=O)O[C@@H]6O[C@H](C(=O)O)[C@@H](O)[C@H](O)[C@H]6O)C[C@H](O)[C@]5(C)CC[C@@]4(C)[C@]3(C)CC[C@@H]12 [Compound 1, 22α-hydroxy-18β-glycyrrhetyl-3-O-sulfate-30-glucuronide] | below detectable levels | approximately 7 fold | 32000 | 177000 | – | – | – | –
2 | CC1(C)[C@@H](O)CC[C@]2(C)[C@H]3C(=O)C=C4[C@@H]5C[C@@](C)(C(=O)O)CC[C@]5(C)CC[C@@]4(C)[C@]3(C)CC[C@@H]12 [GA, glycyrrhetinic acid, reference compound] | 9.8 ± 1.3 nmol | – | 2700 | 2600 | about 100 µM | – | – | –
3 | CC1(C)[C@@H](OS(=O)(=O)O)CC[C@]2(C)[C@H]3C(=O)C=C4[C@@H]5C[C@@](C)(C(=O)O)C[C@H](O)[C@]5(C)CC[C@@]4(C)[C@]3(C)CC[C@@H]12 [Compound 2, 22α-hydroxy-18β-glycyrrhetyl-3-O-sulfate] | 0.86 ± 0.1 nmol | – | 10000 | 8200 | – | – | – | –
4 | CC1(C)[C@@H](OS(=O)(=O)O)CC[C@]2(C)[C@H]3C(=O)C=C4[C@@H]5C[C@@](C)(C(=O)O)CC[C@]5(C)CC[C@@]4(C)[C@]3(C)CC[C@@H]12 [Compound 3, 18β-glycyrrhetyl-3-O-sulfate] | 1.8 ± 0.3 nmol | – | 2000 | 2200 | – | 1.5–2 fold | 4.2 | 23

Continued, in another order:

Row | accumulative elimination in faeces [1] | blood concentration in male rats relative to female rats ([2]; EHBRs, 12 h after oral GA) | concentration at 12 h ([2]; female EHBRs) [nM] | concentration at 12 h ([2]; male EHBRs) [nM] | SMILES | binding activity (ED50) on mineralocorticoid receptor [3] | serum concentration of 3 relative to that of GA (fold higher) ([4]; human serum) | maximum serum concentration ([4]; previous clinical study) [µM] | cross-reactivity to anti-3MGA-mAb (anti-3MGA-mAb) [%]
5 | below detectable levels | – | – | – | CC1(C)[C@@H](O[C@H]2O[C@H](C(=O)O)[C@@H](O)[C@H](O)[C@H]2O[C@@H]2O[C@H](C(=O)O)[C@@H](O)[C@H](O)[C@H]2O)CC[C@]2(C)[C@H]3C(=O)C=C4[C@@H]5C[C@@](C)(C(=O)O)CC[C@]5(C)CC[C@@]4(C)[C@]3(C)CC[C@@H]12 [GL, glycyrrhizin] | – | – | – | –
6 | below detectable levels | – | 100 | 1600 | CC1(C)[C@@H](O[C@@H]2O[C@H](C(=O)O)[C@@H](O)[C@H](O)[C@H]2O)CC[C@]2(C)[C@H]3C(=O)C=C4[C@@H]5C[C@@](C)(C(=O)O)CC[C@]5(C)CC[C@@]4(C)[C@]3(C)CC[C@@H]12 [Compound 3MGA, 18β-glycyrrhetyl-3-O-glucuronide, reference compound] | – | – | – | –
